Tests used:
HCT-116 = assay: Antiproliferative activity against human HCT-116 cells assessed as cell death after 72 hrs by Alamar blue viability assay; format: functional, cell-based; conditions: HCT-116, 72 h
ES-2 = assay: Antiproliferative activity against human ES2 cells assessed as cell death after 72 hrs by Alamar blue viability assay; format: functional, cell-based; conditions: ES-2, 72 h

Compound | IC50 (HCT-116) | IC50 (ES-2)
C[C@@H]1CC[C@@]23C[C@H](O)C(=O)[C@@]2(O)[C@]1(C)[C@H](OC(=O)CI)C[C@@H](C1=CCn2c(=O)n(-c4ccccc4)c(=O)n2C1)[C@@H]3C | 0.66 µM | 0.24 µM
CO[C@H]1C[C@@]23CC[C@@H](C)[C@@](C)([C@H](OC(=O)CCl)C[C@@H](C4=CCn5c(=O)n(-c6ccccc6)c(=O)n5C4)[C@@H]2C)[C@]3(O)C1=O | 3 µM | 1.9 µM
CC1=CC(C)=[N+]2C1=Cc1ccc(CCC(=O)NCCCn3cc(CN4C(=O)C5CC=C([C@@H]6C[C@@H](OC(=O)CCl)[C@]7(C)[C@H](C)CC[C@]8(C[C@H](O)C(=O)[C@]87O)[C@H]6C)CC5C4=O)nn3)n1[B-]2(F)F (some centres undefined) | 14.2 µM | 5.3 µM
C[C@@H]1CC[C@@]23C[C@H](O)C(=O)[C@@]2(O)[C@]1(C)[C@H](OC(=O)CCl)C[C@@H](C1=CCC2C(=O)N(c4ccccc4)C(=O)C2C1)[C@@H]3C (some centres undefined) | 6.4 µM | 2.5 µM
C[C@@H]1CC[C@@]23C[C@H](O)C(=O)[C@@]2(O)[C@]1(C)[C@H](OC(=O)CF)C[C@@H](C1=CCn2c(=O)n(-c4ccccc4)c(=O)n2C1)[C@@H]3C | > 100 µM | 34 µM
C#CCN1C(=O)C2CC=C([C@@H]3C[C@@H](OC(=O)CCl)[C@]4(C)[C@H](C)CC[C@]5(C[C@H](O)C(=O)[C@]54O)[C@H]3C)CC2C1=O (some centres undefined) | 10.5 µM | 4 µM
CO[C@H]1C[C@@]23CC[C@@H](C)[C@@](C)([C@H](OC(=O)C(Cl)Cl)C[C@@H](C4=CCn5c(=O)n(-c6ccccc6)c(=O)n5C4)[C@@H]2C)[C@]3(O)C1=O | > 100 µM | > 100 µM

From ChEMBL document CHEMBL5050851, “Compounds that induce ferroptic cell death” (2020)
